In PubChem BioAssay AID328 (DTP/NCI, 2004) one finds T/C data, which are given here for 16 compounds.

Structures are written as SMILES. Toxic doses and inconclusive results are not listed.

The experiment has as its system BDF1 mice, P388 leukemia ip, median survival T/C. The experiment is described as follows: NCI In Vivo Anticancer Drug Screen. Data for tumor model P388 Leukemia (intraperitoneal) in B6D2F1 (BDF1) mice. Particulars: endpoint: median survival time, higher = longer survival. In a few lines:
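Reported as T/C, where T is the survival measurement in dosed animals and C the same measurement in vehicle controls.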

Setting [1] is: dose: 25.0 mg/kg/injection, schedule: Q01DX009 (ip), vehicle: saline with Tween-80.
The mark [2] stands for this setting: dose: 25.0 mg/kg/injection, schedule: Q04DX003 (ip), vehicle: saline with Tween-80.
[3] abbreviates: dose: 50.0 mg/kg/injection, schedule: Q01DX009 (ip), vehicle: saline with Tween-80.
[4] abbreviates: dose: 50.0 mg/kg/injection, schedule: Q04DX003 (ip), vehicle: Klucel (hydroxypropylcellulose) (HPC).
Setting [5] is: dose: 100.0 mg/kg/injection, schedule: Q04DX003 (ip), vehicle: Klucel (hydroxypropylcellulose) (HPC).
[6] abbreviates: dose: 200.0 mg/kg/injection, schedule: Q01DX009 (ip), vehicle: saline with Tween-80.
Setting [7] is: dose: 3.12 mg/kg/injection, schedule: Q01DX009 (ip), vehicle: Klucel (hydroxypropylcellulose) (HPC).
[8] abbreviates: dose: 100.0 mg/kg/injection, schedule: Q01DX009 (ip), vehicle: saline with Tween-80.
Where [9] appears, read: dose: 25.0 mg/kg/injection, schedule: Q01DX009 (ip), vehicle: saline.
Where [10] appears, read: dose: 50.0 mg/kg/injection, schedule: Q01DX009 (ip), vehicle: saline.
Setting [11] is: dose: 50.0 mg/kg/injection, schedule: Q04DX003 (ip), vehicle: saline.
Where [12] appears, read: dose: 100.0 mg/kg/injection, schedule: Q01DX009 (ip), vehicle: saline.
[13] abbreviates: dose: 100.0 mg/kg/injection, schedule: Q04DX003 (ip), vehicle: saline.
The mark [14] stands for this setting: dose: 200.0 mg/kg/injection, schedule: Q01DX009 (ip), vehicle: saline.

Take `NNc1ncnc2c1ccn2C1OC(CO)C(O)C1O` (configuration not stated): the T/C is 150 % of control under setting [1]; 104 % of control under setting [2]; 155 % of control (dose: 37.5 mg/kg/injection, schedule: Q01DX009 (ip), vehicle: saline with Tween-80); 100 % of control under setting [3]; 108 % of control (dose: 50.0 mg/kg/injection, schedule: Q04DX003 (ip), vehicle: saline with Tween-80); 108 % of control (dose: 100.0 mg/kg/injection, schedule: Q04DX003 (ip), vehicle: saline with Tween-80).
Regarding `O=C(CCN1CC1)Nc1ccc(Cl)c(Cl)c1`, the T/C is, setting by setting: (dose: 25.0 mg/kg/injection, schedule: Q04DX003 (ip), vehicle: Klucel (hydroxypropylcellulose) (HPC)) 90 % of control; under setting [4], 104 % of control; under setting [5], 100 % of control.
Turning to `CCC(C)C1(C)OC1C(=O)OC` (configuration not stated), the T/C reads like this: under setting [6], 107 % of control; (dose: 400.0 mg/kg/injection, schedule: Q01DX009 (ip), vehicle: saline with Tween-80) 107 % of control.
Regarding `BrCCN(CCBr)c1ccc2c3c(cccc13)-c1ccccc1-2`, the T/C is 107 % of control (dose: 0.13 mg/kg/injection, schedule: Q01DX009 (ip), vehicle: saline); 92 % of control (dose: 0.25 mg/kg/injection, schedule: Q01DX009 (ip), vehicle: saline); 111 % of control (dose: 0.5 mg/kg/injection, schedule: Q01DX009 (ip), vehicle: saline); 107 % of control (dose: 0.68 mg/kg/injection, schedule: Q01DX009 (ip), vehicle: Klucel (hydroxypropylcellulose) (HPC)); 111 % of control (dose: 1.0 mg/kg/injection, schedule: Q01DX009 (ip), vehicle: Klucel (hydroxypropylcellulose) (HPC)); 111 % of control (dose: 1.0 mg/kg/injection, schedule: Q01DX009 (ip), vehicle: saline). Moreover, the T/C was 170 % of control under setting [7]; 173 % of control (dose: 21.0 mg/kg/injection, schedule: Q01DX009 (ip), vehicle: Klucel (hydroxypropylcellulose) (HPC)); 115 % of control (dose: 30.0 mg/kg/injection, schedule: Q01DX009 (ip), vehicle: Klucel (hydroxypropylcellulose) (HPC)); 220 % of control (dose: 45.0 mg/kg/injection, schedule: Q01DX009 (ip), vehicle: Klucel (hydroxypropylcellulose) (HPC)); 195 % of control (dose: 70.0 mg/kg/injection, schedule: Q01DX009 (ip), vehicle: Klucel (hydroxypropylcellulose) (HPC)); 104 % of control (dose: 176.0 mg/kg/injection, schedule: Q04DX003 (ip), vehicle: saline with Tween-80). The T/C (dose: 400.0 mg/kg/injection, schedule: Q04DX003 (ip), vehicle: saline with Tween-80) is 86 % of control.
With `CC(=O)c1ccccc1OS(=O)(=O)c1ccc([N+](=O)[O-])cc1`, the T/C by setting is: (dose: 100.0 mg/kg/injection, schedule: Q01DX009 (ip), vehicle: saline sonified) 95 % of control; (dose: 100.0 mg/kg/injection, schedule: Q04DX003 (ip), vehicle: saline sonified) 100 % of control; (dose: 200.0 mg/kg/injection, schedule: Q01DX009 (ip), vehicle: saline sonified) 104 % of control; (dose: 200.0 mg/kg/injection, schedule: Q04DX003 (ip), vehicle: saline sonified) 90 % of control; (dose: 400.0 mg/kg/injection, schedule: Q04DX003 (ip), vehicle: saline sonified) 100 % of control.
For `NNCc1c(C(=O)O)oc2ccccc12`, the T/C is 99 % of control under setting [3] and 100 % of control under setting [8].
Consider `COc1cccc(/C=N/NC(=S)NC2CC3CCC2C3)c1O` (configuration not stated), for which the T/C reads like this: under setting [3], 100 % of control; under setting [8], 95 % of control; under setting [6], 103 % of control.
With `Cc1nc2ccccc2nc1CBr`, the T/C is, setting by setting: (dose: 2.66 mg/kg/injection, schedule: Q01DX009 (ip), vehicle: saline with Tween-80) 109 % of control; under setting [7], 111 % of control; (dose: 6.0 mg/kg/injection, schedule: Q01DX009 (ip), vehicle: saline with Tween-80) 122 % of control; (dose: 6.25 mg/kg/injection, schedule: Q01DX009 (ip), vehicle: Klucel (hydroxypropylcellulose) (HPC)) 122 % of control; (dose: 6.25 mg/kg/injection, schedule: Q04DX003 (ip), vehicle: saline with Tween-80) 109 % of control; (dose: 6.3 mg/kg/injection, schedule: Q01DX009 (ip), vehicle: Klucel (hydroxypropylcellulose) (HPC)) 105 % of control. Moreover, the T/C is 105 % of control (dose: 12.5 mg/kg/injection, schedule: Q01DX009 (ip), vehicle: Klucel (hydroxypropylcellulose) (HPC)); 109 % of control (dose: 12.5 mg/kg/injection, schedule: Q04DX003 (ip), vehicle: saline with Tween-80); 122 % of control under setting [1]; 113 % of control under setting [2].
For the compound `COc1ccc(C=[N+](C)CCc2ccc(OC)c(OC)c2)cc1OC`, the T/C is 95 % of control under setting [9]; 101 % of control under setting [10]; 106 % of control under setting [11]; 100 % of control under setting [12]; 102 % of control under setting [13]; 116 % of control under setting [14]. Moreover, the T/C is, setting by setting: (dose: 200.0 mg/kg/injection, schedule: Q04DX003 (ip), vehicle: saline) 100 % of control; (dose: 400.0 mg/kg/injection, schedule: Q04DX003 (ip), vehicle: saline) 106 % of control.
`O=CN1CCN(c2ccc([N+](=O)[O-])c3nonc23)CC1`: the T/C reads like this: (dose: 15.0 mg/kg/injection, schedule: Q01DX009 (ip), vehicle: saline with Tween-80) 103 % of control; (dose: 20.0 mg/kg/injection, schedule: Q04DX003 (ip), vehicle: saline with Tween-80) 100 % of control; (dose: 30.0 mg/kg/injection, schedule: Q01DX009 (ip), vehicle: saline with Tween-80) 100 % of control; (dose: 40.0 mg/kg/injection, schedule: Q04DX003 (ip), vehicle: saline with Tween-80) 99 % of control; (dose: 80.0 mg/kg/injection, schedule: Q04DX003 (ip), vehicle: saline with Tween-80) 95 % of control.
Turning to `CC1=C(C)C(=O)c2c(OC(=O)c3ccccc3)ccc(OC(=O)c3ccccc3)c2C1=O`, the T/C runs as follows: (dose: 6.25 mg/kg/injection, schedule: Q04DX003 (ip), vehicle: saline) 102 % of control; (dose: 12.5 mg/kg/injection, schedule: Q04DX003 (ip), vehicle: saline) 103 % of control; under setting [9], 92 % of control; (dose: 25.0 mg/kg/injection, schedule: Q04DX003 (ip), vehicle: saline) 94 % of control; under setting [10], 101 % of control; under setting [11], 99 % of control. For the same compound, the T/C reads like this: under setting [12], 92 % of control; under setting [13], 94 % of control; under setting [14], 91 % of control; (dose: 400.0 mg/kg/injection, schedule: Q01DX009 (ip), vehicle: saline) 89 % of control.
With `O=C(O)c1cc2ccccc2o1`, the T/C reads like this: under setting [1], 100 % of control; under setting [3], 104 % of control; under setting [8], 109 % of control.
`CC1(C)OC(C)(C)c2c1nnc(-c1ccccc1[N+](=O)[O-])[n+]2[O-]`: the T/C runs as follows: (dose: 50.0 mg/kg/injection, schedule: Q01DX005 (ip), vehicle: saline with Tween-80) 93 % of control; (dose: 100.0 mg/kg/injection, schedule: Q01DX005 (ip), vehicle: saline with Tween-80) 88 % of control; (dose: 200.0 mg/kg/injection, schedule: Q01DX005 (ip), vehicle: saline with Tween-80) 86 % of control.
In the case of `O=C1N/C(=N\c2nc3ccccc3s2)c2ccccc21`, the T/C is 90 % of control (dose: 3.13 mg/kg/injection, schedule: Q01DX009 (ip), vehicle: saline with Tween-80); 92 % of control (dose: 6.25 mg/kg/injection, schedule: Q01DX009 (ip), vehicle: saline with Tween-80); 92 % of control (dose: 12.5 mg/kg/injection, schedule: Q01DX009 (ip), vehicle: saline with Tween-80).
As for `CC1(O)c2cccc3c2C2(O)c4c1cccc4C(C)(O)c1cccc(c12)C3(C)O` (configuration not stated), the T/C reads like this: under setting [4], 100 % of control; under setting [5], 105 % of control; (dose: 200.0 mg/kg/injection, schedule: Q04DX003 (ip), vehicle: Klucel (hydroxypropylcellulose) (HPC)) 105 % of control.
For `COc1ccc(/C=C2\NC(=O)NC2=O)cc1O`, the T/C runs as follows: under setting [3], 106 % of control; under setting [8], 101 % of control; under setting [6], 105 % of control.
